{"source": "patent US20260158015A1", "about": "(Universite De Bordeaux, priority 2021, published 2026)", "system": "SARS-CoV2 original Wuhan strain, Alpha, Delta and Omicron viruses", "assay": "Replication of SARS-CoV-2 circulating forms in pulmonary A549-ACE2 cells", "type": "cell-based", "settings": "Severe acute respiratory syndrome coronavirus 2, read-out: IC50, block of viral replication of all variants", "data": [{"smiles": "O=S(=O)(c1ccccc1)n1c(-c2cncc(-c3cc4cc(OCc5ccccc5)ccc4n3S(=O)(=O)c3ccccc3)c2)cc2cc(OCc3ccccc3)ccc21", "note": "[AB-00011778]", "values": [{"measurement": "IC50", "value": "500 to 1000", "unit": "nM"}]}]}
